Measurements as given in patent US9249104B2, “Pyrazole indanyl carboxamides” (BAYER CROPSCIENCE AG, priority 2012, dated 2016).

What was measured:
[1] = logP by HPLC on reversed phase columns (EEC directive 79/831 Annex V.A8); format: physicochemical; conditions: for logP: method [a]: LC-MS at pH 2.7, 0.1% formic acid in water / acetonitrile, compounds of formula (I), Table 1; for chromatographic logP: pH 2.7
[2] = system: Septoria tritici; test: In vivo preventive test on Septoria tritici (leaf spot on wheat); conditions: 500 ppm, wheat plants sprayed 24 h before contamination, graded 24 days after contamination
Protocol: Wheat plants (“Scipion” variety), sown in starter cups on a 50/50 peat soil-pozzolana substrate and grown at 22° C., are treated at the 1-leaf stage (10 cm height) by spraying with the active ingredient prepared as described above. Plants, used as controls, are treated with the mixture of acetone/tween/DMSO/water not containing the active material. After 24 hours, the plants are contaminated by spraying the leaves with an aqueous suspension of cryopreserved Septoria tritici spores (500 000 spores per ml). The contaminated wheat plants are incubated for 72 hours at 18° C. and at 100% relative humidity, and then for 21 days at 90% relative humidity. Grading (% of efficacy) is carried out 24 days after the contamination, in comparison with the control plants.

[3] = system: Alternaria brassicae; test: In vivo preventive test on Alternaria brassicae (leaf spot on radish); conditions: 500 ppm, radish plants sprayed 24 h before contamination, graded 6 days after contamination
Protocol: Radish plants (“Pernod Clair” variety), sown in starter cups on a 50/50 peat soil-pozzolana substrate and grown at 17° C., are treated at the cotyledon stage by spraying with the active ingredient prepared as described above. Plants, used as controls, are treated with the mixture of acetone/tween/DMSO/water not containing the active material. After 24 hours, the plants are contaminated by spraying the cotyledons with an aqueous suspension of Alternaria brassicae spores (50 000 spores per ml). The spores are collected from a 15-day-old culture. The contaminated radish plants are incubated at 20° C. and at 100% relative humidity. Grading (% of efficacy) is carried out 6 days after the contamination, in comparison with the control plants.

[4] = system: Sphaerotheca fuliginea; test: In vivo preventive test on Sphaerotheca fuliginea (powdery mildew on cucurbits); conditions: graded 12 days after contamination
Protocol: Gherkin plants (“Vert petit de Paris” variety), sown in starter cups on a 50/50 peat soil-pozzolana substrate and grown at 24° C., are treated at the Z11 cotyledon stage by spraying with the active ingredient prepared as described above. Plants, used as controls, are treated with the mixture of acetone/tween/DMSO/water not containing the active material. After 24 hours, the plants are contaminated by spraying the cotyledons with an aqueous suspension of Sphaerotheca fuliginea spores (100 000 spores per ml). The spores are collected from infected plants. […] Grading (% of efficacy) is carried out 12 days after the contamination, in comparison with the control plants.

[5] = system: Uromyces appendiculatus; test: In vivo preventive test on Uromyces appendiculatus (bean rust); conditions: bean plants
Protocol: Bean plants (“Saxa” variety), sown in starter cups on a 50/50 peat soil-pozzolana substrate and grown at 24° C., are treated at the 2-leaf stage (9 cm height) by spraying with the active ingredient prepared as described above. Plants, used as controls, are treated with the mixture of acetone/tween/DMSO/water not containing the active material. After 24 hours, the plants are contaminated by spraying the leaves with an aqueous suspension of Uromyces appendiculatus spores (150 000 spores per ml). The spores are collected from infected plants and are suspended in water containing 2.5 ml/1 of Tween 80 at 10%. […] Grading (% of efficacy) is carried out 11 days after the contamination, in comparison with the control plants.

[6] = system: Puccinia recondita; test: In vivo preventive test on Puccinia recondita (brown rust on wheat); conditions: graded 12 days after contamination
Protocol: Wheat plants (“Scipion” variety), sown in starter cups on a 50/50 peat soil-pozzolana substrate and grown at 22° C., are treated at the 1-leaf stage (10 cm height) by spraying with the active ingredient prepared as described above. Plants, used as controls, are treated with the mixture of acetone/tween/DMSO/water not containing the active material. After 24 hours, the plants are contaminated by spraying the leaves with an aqueous suspension of Puccinia recondita spores (100 000 spores per ml). The spores are collected from an infected plant and are suspended in water to containing 2.5 ml/l of Tween 80 at 10%. […] Grading (% of efficacy) is carried out 12 days after the contamination, in comparison with the control plants.

[7] = system: Pyrenophora teres; test: In vivo preventive test on Pyrenophora teres (net blotch on barley); conditions: graded 14 days after contamination
Protocol: Barley plants (“Plaisant” variety), sown in starter cups on a 50/50 peat soil-pozzolana substrate and grown at 22° C., are treated at the 1-leaf stage (10 cm height) by spraying with the active ingredient prepared as described above. Plants, used as controls, are treated with the mixture of acetone/tween/DMSO/water not containing the active material. After 24 hours, the plants are contaminated by spraying the leaves with an aqueous suspension of Pyrenophora teres spores (12 000 spores per ml). The spores are collected from a 12-day-old culture. […] Grading (% of efficacy) is carried out 14 days after the contamination, in comparison with the control plants.

[8] = system: Botrytis cinerea; test: In vivo preventive test on Botrytis cinerea (grey mould); conditions: 500 ppm, gherkin plants sprayed 24 h before contamination, graded 4 to 5 days after contamination
Protocol: Gherkin plants (“Vert petit de Paris” variety), sown in starter cups on a 50/50 peat soil-pozzolana substrate and grown at 24° C., are treated at the Z11 cotyledon stage by spraying with the active ingredient prepared as described above. Plants, used as controls, are treated with the mixture of acetone/tween/DMSO/water not containing the active material. After 24 hours, the plants are contaminated by spraying the cotyledons with an aqueous suspension of cryopreserved Botrytis cinerea spores (50 000 spores per ml). The spores are suspended in a nutrient solution composed of 10 g/L of PDB, 50 g/L of D-Fructose, 2 g/L of NH4NO3 and 1 g/L of KH2PO4. The contaminated gherkin plants are incubated at 17° C. and at 90% relative humidity.

[9] = system: Pyricularia oryzae; format: in vivo; conditions: 500 ppm, rice plants sprayed 24 h before contamination, graded 6 days after contamination
[10] = 500 ppm, gherkin plants sprayed 24 h before contamination
[11] = preventive, dose of 500 ppm, grading 11 days after contamination
[12] = 500 ppm, wheat plants sprayed 24 h before contamination
[13] = 500 ppm, barley plants sprayed 24 h before contamination
[14] = 100 ppm, graded 11 days after contamination

Cc1nn(C)c(F)c1C(=O)Nc1cccc2c1CC(C(C)C)C2(C)C (stereo not shown) [Example 41]
logP [1]: 4.34[a] | Eff. % [2]: 71% | Eff. % [3]: 78% | Eff. % [4, 10]: 100% | Eff. % [5, 11]: 100% | Eff. % [6, 12]: 100%

CC1c2cccc(NC(=O)c3cn(C)nc3C(F)F)c2CC12CCCC2 (stereo not shown) [Example 10, 3-(difluoromethyl)-1-methyl-N-(1′-methyl-1′,3′-dihydrospiro[cyclopentane-1,2′-inden]-4′-yl)-1H-pyrazole-4-carboxamide]
chromatographic logP [1]: 3.96 | Eff. % [7, 13]: 83% | Eff. % [2]: 100% | Eff. % [3]: 93% | Eff. % [4, 10]: 100% | Eff. % [5, 11]: 100% | Eff. % [6, 12]: 97%

CCc1c(C(=O)Nc2cccc3c2CC(C)C3(C)C)cnn1C (stereo not shown) [Example 20]
logP [1]: 3.37[a] | Eff. % [7, 13]: 100% | Eff. % [2]: 97% | Eff. % [3]: 97%

CC(C)C1Cc2cccc(NC(=O)c3cn(C)nc3C(F)F)c2C1 (stereo not shown) [Example 3]
Eff. % [7, 13]: 97% | Eff. % [2]: 96% | Eff. % [3]: 92% | Eff. % [4, 10]: 100% | Eff. % [5, 11]: 100% | Eff. % [8]: 85% | Eff. % [6, 12]: 94%

CCC1Cc2c(NC(=O)c3cn(C)nc3C(F)F)cccc2C1(C)C (stereo not shown) [Example 36]
logP [1]: 3.96[a] | Eff. % [7, 13]: 75% | Eff. % [2]: 86% | Eff. % [4, 10]: 100% | Eff. % [5, 11]: 100% | Eff. % [6, 12]: 98%

Cc1nn(C)c(C)c1C(=O)Nc1cccc2c1C(C)C(C)C2(C)C (stereo not shown) [Example 16]
logP [1]: 3.15[a] | Eff. % [5, 11]: 100% | Eff. % [8]: 100% | Eff. % [6, 12]: 98%

CC(C)C1Cc2c(NC(=S)c3cn(C)nc3C(F)F)cccc2C1(C)C (stereo not shown) [Example 77, 3-(difluoromethyl)-N-(2-isopropyl-1,1-dimethyl-2,3-dihydro-1H-inden-4-yl)-1-methyl-1H-pyrazole-4-carbothioamide]
chromatographic logP [1]: 4.54 | Eff. % ([7]; 100 ppm, barley plants): 100% | Eff. % ([4]; 100 ppm, gherkin plants): 100% | Eff. % [5, 14]: 100% | Eff. % ([6]; 100 ppm, wheat plants): 100%

CC1Cc2c(NC(=S)c3cn(C)nc3C(F)F)cccc2C1(C)C (stereo not shown) [Example 28]
logP [1]: 3.85[a] | Eff. % [2]: 83% | Eff. % [4, 10]: 100% | Eff. % [5, 11]: 100% | Eff. % [9]: 93%

CC(C)C1Cc2c(NC(=S)c3cn(C)nc3C(F)(F)F)cccc2C1(C)C (racemic) [Example 86]
logP [1]: 4.78[a] | Eff. % ([7]; 100 ppm, barley plants): 100% | Eff. % ([4]; 100 ppm, gherkin plants): 100% | Eff. % [5, 14]: 100% | Eff. % ([6]; 100 ppm, wheat plants): 100%

CC1c2c(NC(=O)c3cn(C)nc3C(F)(F)F)cccc2C(C)(C)C1C (stereo not shown) [Example 31]
logP [1]: 3.76[a] | Eff. % [2]: 79% | Eff. % [3]: 80% | Eff. % [4, 10]: 72% | Eff. % [5, 11]: 100% | Eff. % [6, 12]: 94%

CC(C)C1Cc2c(NC(=O)c3cn(C)nc3C(F)(F)F)cccc2C1(C)C (stereo not shown) [Example 40]
logP [1]: 4.46[a] | Eff. % [2]: 93% | Eff. % [3]: 89% | Eff. % [4, 10]: 100% | Eff. % [5, 11]: 100% | Eff. % [6, 12]: 98%
